PMC11475281, “A Novel Liver Cancer-Selective Histone Deacetylase Inhibitor Is Effective against Hepatocellular Carcinoma and Induces Durable Responses with Immunotherapy” (ACS Pharmacology & Translational Science, 2024)

What was measured:
Hep3B = assay: MTS cell viability assay, 72 h; format: cell-based; conditions: Homo sapiens, Figure 1g, read-out: Anti-proliferation effects IC50 (μM) Hep3 B
Text: (§1) We then screened STR-V-53 and all the synthesized glycosylated HDACi for their effects on the viability of three cell lines: A549 (lung adenocarcinoma), Hep-G2 (HCC), and VERO (a normal kidney epithelial cell). We used SORA and STR-V-48, a previously disclosed nonglycosylated compound, as controls.[25] […] Additionally, compound STR-V-167, the peracetylated analog of STR-V-53, largely retained the Hep-G2 selectivity of STR-V-53 (Table S2). Subsequently, we evaluated the effects of STR-V-53 on cell proliferation using a panel of human HCC cell lines (Huh-7, SK-Hep-1, and Hep3B) as well as Kupffer cells (liver resident macrophages) by MTS assay. We observed that STR-V-53 is 7- to 16-fold more cytotoxic against these HCC cell lines relative to the Kupffer cells (Figure 1g). […] Based on their weak HDAC and cell proliferation inhibition activities, we de-emphasized further evaluation of the class III compounds.
(§2) 10-017-CV), supplemented with 10% fetal bovine serum (FBS) (Corning, 35-010-CV). Hep-G2 cells were cultured in phenol red-free Minimum Essential Medium (MEM) (Corning, 17-305-CV), supplemented with 10% fetal bovine serum (FBS). SK-Hep-1 in ATCC-formulated EMEM (ATCC® 30–2003™); Huh-7 in DMEM (containing 4 mM L-glutamine and 1 g/L glucose) with […]
(§3) Kupffer Cell Media (Sekisui XenoTech, LLC, Cat. #K8700). Cells were seeded into a 96-well plate (2000 counts/100uL) for 24 h prior to treatment and then treated with various drug concentrations for 72 h. All drugs were dissolved in media with DMSO concentration maintained at 1%. The effect of compounds on cell viability was measured using the MTS assay (CellTiter 96 Aqueous One Solution and CellTiter 96 Non-Radioactive Cell Proliferation Assays, Promega, Madison, WI) as described by the manufacturer. IC50s were determined using Prism GraphPad 8. […]

SK-Hep-1 = assay: MTS cell viability assay, 72 h; format: cell-based; conditions: Homo sapiens, SK-HEP1; Figure 1g; read-out: Anti-proliferation effects IC50 (μM) SK-Hep-1
Text: as §1, §2, §3

[1] = system: Kupffer cells (liver resident macrophages); assay: MTS cell viability assay, 72 h; format: cell-based; conditions: Macrophage; Figure 1g; read-out: Anti-proliferation effects IC50 (μM) Kupffer
Text: as §1, §2, §3

Huh-7 = assay: MTS cell viability assay, 72 h; format: cell-based; conditions: Homo sapiens, Figure 1g, read-out: Anti-proliferation effects IC50 (μM) Huh-7
Text: as §1, §2, §3

HDAC3/ NCOR2 = HDAC3/ NCOR2 (Homo sapiens, UniProt O15379); assay: HDAC isoform inhibition (BPS Bioscience)
Chain of HDAC3/ NCOR2 (O15379 whole entry, canonical isoform): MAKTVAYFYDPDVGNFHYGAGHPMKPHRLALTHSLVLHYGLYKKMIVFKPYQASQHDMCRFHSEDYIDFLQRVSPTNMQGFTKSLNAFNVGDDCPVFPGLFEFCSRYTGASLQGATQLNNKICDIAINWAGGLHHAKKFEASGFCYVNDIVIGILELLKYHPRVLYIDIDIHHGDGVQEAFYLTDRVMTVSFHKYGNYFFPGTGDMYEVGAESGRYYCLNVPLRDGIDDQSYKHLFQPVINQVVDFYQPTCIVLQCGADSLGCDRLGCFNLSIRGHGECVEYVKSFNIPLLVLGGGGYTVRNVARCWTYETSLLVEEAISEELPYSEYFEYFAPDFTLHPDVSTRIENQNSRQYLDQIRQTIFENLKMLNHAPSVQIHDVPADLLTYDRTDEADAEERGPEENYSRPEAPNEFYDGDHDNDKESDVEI
Chain of HDAC3/ NCOR2 (Q9Y618 395-489 partner limits assumed): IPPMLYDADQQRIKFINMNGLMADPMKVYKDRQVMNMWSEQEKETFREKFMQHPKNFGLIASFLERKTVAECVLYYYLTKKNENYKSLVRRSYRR

GLUT-2 = GLUT-2 uptake experiment (phloretin blockade, MTS); format: cell-based; conditions: African green monkey, VERO cells, with phloretin 25 µM, Pre-treated with 25 μM Ph, read-out: VERO Cell Viability %
Experimental: (§4) We observed that Ph selectively mitigated the cytotoxicity of STR-V-53 against the Hep-G2 cell line with no apparent effect on the cytotoxicity of SAHA (Figure 2a). […] This matches our expectation because Hep-G2 cells overexpress GLUT-2 while VERO has limited expression of GLUT-2.[26] […]
(§5) Hep-G2 or VERO cells were seeded (2500 to 4,000 counts/well) into 96-well plates, in which each well contains 100 µL media. The cells were cultured overnight in the respective media described in the cell culture section above. On day 2, the cells were treated with 25 µM Phloretin for 24 h. On day 3, 200x stock solutions of STR-V-53 and SAHA were used to prepare 2x treatment solution by adding 1% stock solution in the media. Then, without removal of the media in 96-well plates, the same volumes of drug as the media were added directly to the wells with gentle pipetting to reach 1x drug solution with 25 µM Ph. After another 72 h, the media were removed, and new media (100 µL) added to the wells. MTS solution (20 µL) was added to each well. After 2.5-4 h incubation, the plates were read using a multiplate reader at 490 nm. The data were processed using GraphPad Prism 8. […]

[2] = GLUT-2 uptake experiment (phloretin blockade, MTS); format: cell-based; conditions: African green monkey, VERO cells, No addition of Ph, read-out: VERO Cell Viability %
Experimental: as §4, §5

Text for RIL-175 murine HCC: (d) Body weight change of tumor-bearing mice in the four treatment groups.
Next, we evaluated the in vivo efficacy of STR-V-53 alone or combined with an anti-PD1
antibody in a p53-null murine HCC model.
into the subcapsular region of the liver parenchyma in C57Bl/6 mice, and tumor growth was
monitored by high-frequency ultrasonography. When tumors reached ~5 mm in diameter, mice
were randomly assigned to one of the four treatment groups (n=12 mice): DMA/ CRH/Water
(10%/20%/70%) (control), STR-V-53 (25mg/kg daily by i.p. for 3 weeks), anti-PD1 antibody
(10mg/kg thrice a week for 3 weeks), or combination of STR-V-53 and anti-PD1 antibody. Anti-
PD1 antibody treatment was administered i.p. for a total of 9 injections. Tumor growth and body
weight were measured every three days by ultrasound imaging, and tumor size was calculated as
0.5×length×width2. Per protocol, moribund status was used as the endpoint, and moribundity
the starting date, body condition score of more than 2, and tumor size of more than 15 mm in
diameter. Data were processed using GraphPad Prism 8, and survival analysis was performed

SMILES	IC50 (Hep3B) [µM]	IC50 (SK-Hep-1) [µM]	IC50 [1] [µM]	IC50 (Huh-7) [µM]	Body weight change of tumor-bearing mice (weight loss) (RIL-175 murine HCC; RIL-175 model, 12 mice per group)	Tumor growth (RIL-175 murine HCC; RIL-175 model, n = 12)	Overall survival (Kaplan–Meier) (RIL-175 murine HCC; RIL-175 model, n = 12, vs IgG control)	Overt toxicity during the treatment period (RIL-175 murine HCC; RIL-175 tumor-bearing mice)	IC50 (HDAC3/ NCOR2) [µM]	viability at 72 h, 75 µM (GLUT-2; 75μM) [%]	viability at 72 h, 100 µM (GLUT-2; 100μM) [%]	viability at 72 h, 75 µM ([2]; 75μM) [%]	viability at 72 h, 100 µM ([2]; 100μM) [%]	viability at 72 h, 6.5 µM (GLUT-2; 6.5 μM) [%]	viability at 72 h, 12.5 µM (GLUT-2; 12.5 μM) [%]	viability at 72 h, 6.5 µM ([2]; 6.5 μM) [%]	viability at 72 h, 12.5 µM ([2]; 12.5 μM) [%]
O=C(CCCCCCn1cc(-c2ccc(O[C@H]3O[C@H](CO)[C@@H](O)[C@H](O)[C@H]3O)cc2)nn1)NO [STR-V-53]	11.1	13.9	> 100	6.25	4/12	minor effect on tumor growth	no impact on survival	no significant overt toxicity	0.021	100	75.9	98.4	77.8	–	–	–	–
O=C(CCCCCCC(=O)Nc1ccccc1)NO [SAHA, vorinostat, reference compound]	–	–	–	–	–	–	–	–	–	–	–	–	–	87.2	7.5	97.7	17.1
